Measurements published in patent US9073858B2, “Methods of targeted drug development” (priority 2010, dated 2015).
pIC50: −log10 of the molar value. Read-outs that look alike come from different tables or passages of the source.

Experiments:
[1] = tested on: epithelial carcinoma A431 cell line; assay: MTT Cell Proliferation Assay, A431 cell line; type: cell-based; details: for pIC50: Homo sapiens
Summary of the method: (§1)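 Cells plated overnight, then exposed 3 days at 37 °C, 5% CO2 to compound in growth medium with 0.5% FBS and 0.5% DMSO final (0.5% DMSO as control).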

[2] = tested on: MDBK line; assay: MTT Cell Proliferation Assay, MDBK line; type: cell-based, bovine; details: Bos taurus, MDBK
Summary of the method: as §1

pIC50 ([1]; A-431, 10 point follow-up, first value of pair, read-out: MTT (10 Point follow-up) A431): 6.55 | pIC50 ([1]; A-431, 72 h, 72 h, first value of A431/MDBK pair, read-out: MTT-72 h A431): 6.54
SMILES: Oc1c(C(Nc2ccccn2)c2ccc(C(F)(F)F)cc2)ccc2cccnc12 (stereo not drawn) [compound 10460]
MTT (10 Point follow-up) ratio ([1]; 10 point follow-up, value in brackets, numerically MDBK over A431): 1.34 | MTT-72 h A431/MDBK (ratio) ([1]; 72 h, value in brackets, numerically MDBK value over A431 value): 1.84 | pIC50 ([2]; 10 point follow-up, second value of pair, read-out: MTT (10 Point follow-up) MDBK): 6.43 | pIC50 ([2]; 72 h, second value of A431/MDBK pair, read-out: MTT-72 h MDBK): 6.28
